# Source: ChEMBL document CHEMBL3044672, “N9- and N7-(Chloromethyl Phenymethyl)Chloropurine Derivatives from , '-Dichloroxylenes: Synthesis and Anticancer Activity” (2005)
# Columns and labels:
# Type in all cases: functional
# A498 = assay: Cytotoxicity against Homo sapiens (human) A498 cells after 48 hr by sulforhodamine B assay; conditions: A498, 48 h
# ACHN = assay: Cytotoxicity against Homo sapiens (human) ACHN cells after 48 hr by sulforhodamine B assay
# 786-0 = assay: Cytotoxicity against Homo sapiens (human) 786-0 cells after 48 hr by sulforhodamine B assay; conditions: 786-0, 48 h
# OVCAR-5 = assay: Cytotoxicity against Homo sapiens (human) OVCAR5 cells after 48 hr by sulforhodamine B assay; conditions: OVCAR-5, 48 h
# IGROV-1 = assay: Cytotoxicity against Homo sapiens (human) IGROV1 cells after 48 hr by sulforhodamine B assay; conditions: IGROV-1, 48 h
# OVCAR-3 = assay: Cytotoxicity against Homo sapiens (human) OVCAR3 cells after 48 hr by sulforhodamine B assay; conditions: OVCAR-3, 48 h
# UACC-257 = assay: Cytotoxicity against Homo sapiens (human) UACC257 cells after 48 hr by sulforhodamine B assay; conditions: UACC-257, 48 h
# SK-MEL-28 = assay: Cytotoxicity against Homo sapiens (human) SK-MEL-28 cells after 48 hr by sulforhodamine B assay; conditions: SK-MEL-28, 48 h
# SK-MEL-2 = assay: Cytotoxicity against Homo sapiens (human) SK-MEL-2 cells after 48 hr by sulforhodamine B assay; conditions: SK-MEL-2, 48 h
# M14 = assay: Cytotoxicity against Homo sapiens (human) M14 cells after 48 hr by sulforhodamine B assay; conditions: M14, 48 h
# U-251 = assay: Cytotoxicity against Homo sapiens (human) U251 cells after 48 hr by sulforhodamine B assay; conditions: U-251, 48 h
# T47D = assay: Cytotoxicity against Homo sapiens (human) T47D cells after 48 hr by sulforhodamine B assay
# MDA-MB-435 = assay: Cytotoxicity against Homo sapiens (human) MDA-MB-435 cells after 48 hr by sulforhodamine B assay; conditions: MDA-MB-435, 48 h
# Hs-578T = assay: Cytotoxicity against Homo sapiens (human) Hs 578T cells after 48 hr by sulforhodamine B assay
# [1] = Cytotoxicity against Homo sapiens (human) NCI-ADR-RES cells after 48 hr by sulforhodamine B assay
# DU-145 = assay: Cytotoxicity against Homo sapiens (human) DU145 cells after 48 hr by sulforhodamine B assay; conditions: DU-145, 48 h
# UO-31 = assay: Cytotoxicity against Homo sapiens (human) UO31 cells after 48 hr by sulforhodamine B assay; conditions: UO-31, 48 h
# TK-10 = assay: Cytotoxicity against Homo sapiens (human) TK10 cells after 48 hr by sulforhodamine B assay; conditions: TK-10, 48 h
# CAKI-1 = assay: Cytotoxicity against Homo sapiens (human) Caki1 cells after 48 hr by sulforhodamine B assay; conditions: CAKI-1, 48 h
# SF-295 = assay: Cytotoxicity against Homo sapiens (human) SF295 cells after 48 hr by sulforhodamine B assay; conditions: SF-295, 48 h
# SW-620 = assay: Cytotoxicity against Homo sapiens (human) SW620 cells after 48 hr by sulforhodamine B assay; conditions: SW-620, 48 h
# HCT-15 = assay: Cytotoxicity against Homo sapiens (human) HCT15 cells after 48 hr by sulforhodamine B assay; conditions: HCT-15, 48 h
# HCT-116 = assay: Cytotoxicity against Homo sapiens (human) HCT116 cells after 48 hr by sulforhodamine B assay; conditions: HCT-116, 48 h
# HCC 2998 = assay: Cytotoxicity against Homo sapiens (human) HCC2998 cells after 48 hr by sulforhodamine B assay; conditions: HCC 2998, 48 h
# NCI-H460 = assay: Cytotoxicity against Homo sapiens (human) NCI-H460 cells after 48 hr by sulforhodamine B assay; conditions: NCI-H460, 48 h
# NCI-H322M = assay: Cytotoxicity against Homo sapiens (human) NCI-H322M cells after 48 hr by sulforhodamine B assay
# NCI-H226 = assay: Cytotoxicity against Homo sapiens (human) NCI-H226 cells after 48 hr by sulforhodamine B assay; conditions: NCI-H226, 48 h
# HOP-92 = assay: Cytotoxicity against Homo sapiens (human) HOP92 cells after 48 hr by sulforhodamine B assay; conditions: HOP-92, 48 h
# A549 = assay: Cytotoxicity against Homo sapiens (human) A549 cells after 48 hr by sulforhodamine B assay; conditions: A549, 48 h
# MOLT-4 = assay: Cytotoxicity against Homo sapiens (human) MOLT4 cells after 48 hr by sulforhodamine B assay; conditions: MOLT-4, 48 h
# CCRF-CEM = assay: Cytotoxicity against Homo sapiens (human) CCRF-CEM cells after 48 hr by sulforhodamine B assay
# MCF7 = assay: Cytotoxicity against Homo sapiens (human) MCF7 cells assessed as cell growth at 10^-4 M after 48 hr by Alamar blue assay; conditions: MCF7, 48 h, read-out: Activity
# [2] = read-out: LC50 (the source's name)
smiles,measurement,setting,value
ClCc1ccccc1Cn1cnc2c(Cl)ncnc21,GI50,A498,17.4 µM
same,"LC50 (lethal concentration, 50% cell kill)",A498,58.9 µM
same,TGI,A498,32.4 µM
same,GI50,ACHN,2.7 µM
same,TGI,ACHN,6.16 µM
same,CC50,ACHN; [2],26.9 µM
same,GI50,786-0,17.8 µM
same,LC50,786-0,83.2 µM
same,TGI,786-0,38 µM
same,GI50,OVCAR-5,2.45 µM
same,TGI,OVCAR-5,6.6 µM
same,CC50,OVCAR-5; [2],25.7 µM
same,GI50,IGROV-1,3.16 µM
same,LC50,IGROV-1,55 µM
same,TGI,IGROV-1,8.91 µM
same,GI50,OVCAR-3,1.41 µM
same,LC50,OVCAR-3,8.91 µM
same,TGI,OVCAR-3,3.54 µM
same,GI50,UACC-257,10.7 µM
same,LC50 (concentration killing 50% of cells),UACC-257,66.1 µM
same,TGI,UACC-257,26.3 µM
same,GI50,SK-MEL-28,2.29 µM
same,LC50 (concentration killing 50% of cells),SK-MEL-28,24.6 µM
same,TGI,SK-MEL-28,5.49 µM
same,GI50,SK-MEL-2,2.75 µM
same,LC50 (concentration killing 50% of cells),SK-MEL-2,> 100 µM
same,TGI,SK-MEL-2,18.2 µM
same,GI50,M14,1.95 µM
same,LC50,M14,7.24 µM
same,TGI,M14,3.71 µM
same,GI50,U-251,2.63 µM
same,LC50 (concentration killing 50% of cells),U-251,61.7 µM
same,TGI,U-251,6.16 µM
same,GI50,T47D,17.8 µM
same,LC50,T47D,> 100 µM
same,TGI,T47D,61.7 µM
same,GI50,MDA-MB-435,3.02 µM
same,LC50,MDA-MB-435,36.3 µM
same,TGI,MDA-MB-435,9.55 µM
same,GI50,Hs-578T,2.29 µM
same,LC50,Hs-578T,56.2 µM
same,TGI,Hs-578T,6.6 µM
same,GI50,[1],2.18 µM
same,LC50 (concentration killing 50% of cells),[1],10.5 µM
same,TGI,[1],4.67 µM
same,GI50,DU-145,5.62 µM
same,LC50,DU-145,> 100 µM
same,TGI,DU-145,34.7 µM
same,GI50,UO-31,2.63 µM
same,LC50 (concentration causing 50% net cell kill),UO-31,61.7 µM
same,TGI,UO-31,10.5 µM
same,GI50,TK-10,22.9 µM
same,TGI,TK-10,46.8 µM
same,CC50,TK-10; [2],95.5 µM
same,GI50,CAKI-1,1.82 µM
same,TGI,CAKI-1,4.17 µM
same,CC50,CAKI-1; [2],9.33 µM
same,GI50,SF-295,10.5 µM
same,TGI,SF-295,23.4 µM
same,CC50,SF-295; [2],51.3 µM
same,GI50,SW-620,1.77 µM
same,TGI,SW-620,5.01 µM
same,CC50,SW-620; [2],26.3 µM
same,GI50,HCT-15,2.09 µM
same,TGI,HCT-15,4.67 µM
same,CC50,HCT-15; [2],43.6 µM
same,GI50,HCT-116,1.9 µM
same,TGI,HCT-116,3.71 µM
same,CC50,HCT-116; [2],7.08 µM
same,GI50,HCC 2998,1.66 µM
same,TGI,HCC 2998,3.54 µM
same,CC50,HCC 2998; [2],7.41 µM
same,GI50,NCI-H460,15.5 µM
same,TGI,NCI-H460,44.7 µM
same,CC50,NCI-H460; [2],> 100 µM
same,GI50,NCI-H322M,3.98 µM
same,TGI,NCI-H322M,13.8 µM
same,CC50,NCI-H322M; [2],43.6 µM
same,GI50,NCI-H226,4.57 µM
same,TGI,NCI-H226,12.6 µM
same,CC50,NCI-H226; [2],38.9 µM
same,GI50,HOP-92,1.48 µM
same,TGI,HOP-92,4.26 µM
same,CC50,HOP-92; [2],21.4 µM
same,GI50,A549,7.76 µM
same,TGI,A549,25.7 µM
same,CC50,A549; [2],75.9 µM
same,GI50,MOLT-4,1.58 µM
same,TGI,MOLT-4,5.24 µM
same,CC50,MOLT-4; [2],> 100 µM
same,GI50,CCRF-CEM,1.28 µM
same,TGI,CCRF-CEM,3.23 µM
same,CC50,CCRF-CEM; [2],8.12 µM
same,growth at 100 µM,MCF7,43%
